This note sets out measurements from ChEMBL document CHEMBL1201862, “PubChem BioAssay data set” (2004).

Calls of active or inactive are those of the source.

The target of one assay is Large T antigen (Simian virus 40, UniProt P03070). The class given is functional, Betapolyomavirus macacae.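 Note: Confirmatory-stage PubChem screen for compounds that inhibit SV40 T antigen.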
For another assay, the target named is Trypsin (Sus scrofa, UniProt P00761). Briefly: trypsin protease activity blockade – biochemical, quenched peptide fluorescence, cherry-pick, selectivity assay for Rce1 protease inhibitor project, dose response (AID 488789).
Sequence of Trypsin (P00761 whole entry): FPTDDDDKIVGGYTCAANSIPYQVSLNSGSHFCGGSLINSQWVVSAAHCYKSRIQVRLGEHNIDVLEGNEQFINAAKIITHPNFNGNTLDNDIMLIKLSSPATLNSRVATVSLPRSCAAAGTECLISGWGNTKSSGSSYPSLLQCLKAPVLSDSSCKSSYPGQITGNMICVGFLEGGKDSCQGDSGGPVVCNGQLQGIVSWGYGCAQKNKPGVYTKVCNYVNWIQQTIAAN
The target of another assay is CAAX prenyl protease 2 (Saccharomyces cerevisiae S288c, UniProt Q03530). Type of assay: biochemical.
Sequence of CAAX prenyl protease 2 (Q03530 whole entry): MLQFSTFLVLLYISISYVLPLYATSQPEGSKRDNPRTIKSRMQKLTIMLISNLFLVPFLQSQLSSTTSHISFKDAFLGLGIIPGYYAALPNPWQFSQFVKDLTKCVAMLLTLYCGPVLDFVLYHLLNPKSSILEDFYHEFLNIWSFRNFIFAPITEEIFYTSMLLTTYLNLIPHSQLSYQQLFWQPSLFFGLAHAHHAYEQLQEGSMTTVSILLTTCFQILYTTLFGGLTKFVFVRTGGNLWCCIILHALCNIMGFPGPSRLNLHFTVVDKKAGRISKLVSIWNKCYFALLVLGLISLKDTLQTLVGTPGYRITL
Assay [1] is described as follows: viability of uninfected HEp-2 cells – cell-based, HTS, cytotoxicity control for RSV inhibitor project, dose response (AID 2410). Type of assay: functional. Particulars: human respiratory syncytial virus.
The target in assay [2] is T1, Runt-related transcription factor 1/Core-binding factor subunit beta (Homo sapiens, UniProt Q01196+Q13951). Briefly: disruptors of Runt domain/CBFb-SMMHC interaction – biochemical, FRET, Cerulean-Runt, Venus-CBFb-SMMHC, uHTS, […] (AID 1434). The class given is protein assay.
T1 sequence (Q01196 whole entry, the tested form may be a part): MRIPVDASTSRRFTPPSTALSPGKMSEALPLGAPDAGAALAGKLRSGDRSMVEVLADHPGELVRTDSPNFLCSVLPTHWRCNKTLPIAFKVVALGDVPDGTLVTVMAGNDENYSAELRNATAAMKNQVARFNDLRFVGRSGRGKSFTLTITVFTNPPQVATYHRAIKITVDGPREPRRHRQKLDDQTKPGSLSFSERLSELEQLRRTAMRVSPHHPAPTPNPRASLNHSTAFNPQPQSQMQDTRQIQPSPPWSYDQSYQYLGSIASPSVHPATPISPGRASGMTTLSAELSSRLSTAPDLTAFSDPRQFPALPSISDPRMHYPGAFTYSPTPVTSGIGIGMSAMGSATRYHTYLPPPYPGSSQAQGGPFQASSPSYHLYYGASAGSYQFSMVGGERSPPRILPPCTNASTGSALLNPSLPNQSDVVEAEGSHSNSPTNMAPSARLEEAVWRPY
T1 sequence (Q13951 whole entry, the tested form may be a part): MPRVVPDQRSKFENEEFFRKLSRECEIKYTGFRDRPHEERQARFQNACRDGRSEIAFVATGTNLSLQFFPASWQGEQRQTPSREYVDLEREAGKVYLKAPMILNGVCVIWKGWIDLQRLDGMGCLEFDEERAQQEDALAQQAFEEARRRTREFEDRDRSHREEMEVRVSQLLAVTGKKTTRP
Assay [3] has as its target T1, Runt-related transcription factor 1/Core-binding factor subunit beta. The assay is described as follows: Runt domain/CBFb-SMMHC interaction disruptors – biochemical, TR-FRET (AID 1438). Type of assay: protein assay. Background: Time-resolved FRET reads energy transfer from a long-lived donor to a nearby acceptor.
The target of assay [4] is Intestinal-type alkaline phosphatase (Homo sapiens, UniProt P09923). Briefly: human intestinal alkaline phosphatase activators, dose response, biochemical, luminescence, uHTS hits (AID 463120). The class given is functional.
Sequence of Intestinal-type alkaline phosphatase (P09923 whole entry): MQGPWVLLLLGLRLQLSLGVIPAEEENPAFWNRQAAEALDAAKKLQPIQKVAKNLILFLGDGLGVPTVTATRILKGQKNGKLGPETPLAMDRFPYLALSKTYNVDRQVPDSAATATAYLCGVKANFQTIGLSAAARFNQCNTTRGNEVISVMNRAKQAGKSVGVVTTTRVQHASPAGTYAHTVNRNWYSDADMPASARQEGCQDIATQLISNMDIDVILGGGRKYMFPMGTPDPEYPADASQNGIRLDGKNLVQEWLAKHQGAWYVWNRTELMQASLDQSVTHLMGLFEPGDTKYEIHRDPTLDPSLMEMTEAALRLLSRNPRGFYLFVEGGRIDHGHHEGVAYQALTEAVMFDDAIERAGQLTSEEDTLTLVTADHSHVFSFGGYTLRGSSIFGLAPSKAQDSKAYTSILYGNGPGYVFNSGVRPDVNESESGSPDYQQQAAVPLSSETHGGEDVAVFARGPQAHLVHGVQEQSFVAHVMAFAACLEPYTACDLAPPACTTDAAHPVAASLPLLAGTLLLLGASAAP
The target in another assay is T2, Hexokinase HKDC1 (Homo sapiens, UniProt Q2TB90).
T2 sequence (Q2TB90 whole entry): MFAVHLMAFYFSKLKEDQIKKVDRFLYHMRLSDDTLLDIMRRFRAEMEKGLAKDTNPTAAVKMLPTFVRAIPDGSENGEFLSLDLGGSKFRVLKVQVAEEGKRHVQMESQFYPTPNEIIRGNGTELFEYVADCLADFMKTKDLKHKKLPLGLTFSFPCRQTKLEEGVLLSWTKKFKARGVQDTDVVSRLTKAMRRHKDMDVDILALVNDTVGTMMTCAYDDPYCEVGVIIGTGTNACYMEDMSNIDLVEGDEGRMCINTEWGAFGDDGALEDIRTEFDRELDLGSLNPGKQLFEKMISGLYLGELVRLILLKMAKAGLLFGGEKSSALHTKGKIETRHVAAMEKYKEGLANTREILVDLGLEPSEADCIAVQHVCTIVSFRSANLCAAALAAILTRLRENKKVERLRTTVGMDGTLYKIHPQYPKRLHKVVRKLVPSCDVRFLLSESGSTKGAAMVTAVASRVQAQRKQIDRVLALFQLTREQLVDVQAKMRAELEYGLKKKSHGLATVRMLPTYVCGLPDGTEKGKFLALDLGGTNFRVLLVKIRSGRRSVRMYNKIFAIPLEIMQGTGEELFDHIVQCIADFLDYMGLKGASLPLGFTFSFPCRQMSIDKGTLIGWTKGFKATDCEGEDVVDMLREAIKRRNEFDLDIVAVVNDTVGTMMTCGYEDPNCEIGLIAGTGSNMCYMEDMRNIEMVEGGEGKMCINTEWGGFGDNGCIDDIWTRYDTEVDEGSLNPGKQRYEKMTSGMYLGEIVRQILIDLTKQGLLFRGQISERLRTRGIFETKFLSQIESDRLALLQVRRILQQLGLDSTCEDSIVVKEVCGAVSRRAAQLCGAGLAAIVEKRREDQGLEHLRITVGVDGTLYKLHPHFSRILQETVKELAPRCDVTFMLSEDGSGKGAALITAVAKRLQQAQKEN
Briefly: activation of HKDC1 glucose phosphorylation – biochemical, W721R variant, dose response (AID 504730). Type of assay: functional.

The next assay deals with Nonstructural protein 1 (Influenza A virus, UniProt Q194T2). The class given is functional, Influenza A virus (A/California/07/2009(H1N1)).
Sequence of Nonstructural protein 1 (Q194T2 whole entry): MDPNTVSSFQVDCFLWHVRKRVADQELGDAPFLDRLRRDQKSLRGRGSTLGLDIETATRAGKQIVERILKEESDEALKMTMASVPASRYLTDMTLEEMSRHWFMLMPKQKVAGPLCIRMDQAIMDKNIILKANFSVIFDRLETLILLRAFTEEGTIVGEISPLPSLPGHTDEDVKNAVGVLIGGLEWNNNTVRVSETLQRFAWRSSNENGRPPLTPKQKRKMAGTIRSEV
Another assay has as its target T3, Hexokinase-1 (Homo sapiens, UniProt P19367).
T3 sequence (P19367 whole entry): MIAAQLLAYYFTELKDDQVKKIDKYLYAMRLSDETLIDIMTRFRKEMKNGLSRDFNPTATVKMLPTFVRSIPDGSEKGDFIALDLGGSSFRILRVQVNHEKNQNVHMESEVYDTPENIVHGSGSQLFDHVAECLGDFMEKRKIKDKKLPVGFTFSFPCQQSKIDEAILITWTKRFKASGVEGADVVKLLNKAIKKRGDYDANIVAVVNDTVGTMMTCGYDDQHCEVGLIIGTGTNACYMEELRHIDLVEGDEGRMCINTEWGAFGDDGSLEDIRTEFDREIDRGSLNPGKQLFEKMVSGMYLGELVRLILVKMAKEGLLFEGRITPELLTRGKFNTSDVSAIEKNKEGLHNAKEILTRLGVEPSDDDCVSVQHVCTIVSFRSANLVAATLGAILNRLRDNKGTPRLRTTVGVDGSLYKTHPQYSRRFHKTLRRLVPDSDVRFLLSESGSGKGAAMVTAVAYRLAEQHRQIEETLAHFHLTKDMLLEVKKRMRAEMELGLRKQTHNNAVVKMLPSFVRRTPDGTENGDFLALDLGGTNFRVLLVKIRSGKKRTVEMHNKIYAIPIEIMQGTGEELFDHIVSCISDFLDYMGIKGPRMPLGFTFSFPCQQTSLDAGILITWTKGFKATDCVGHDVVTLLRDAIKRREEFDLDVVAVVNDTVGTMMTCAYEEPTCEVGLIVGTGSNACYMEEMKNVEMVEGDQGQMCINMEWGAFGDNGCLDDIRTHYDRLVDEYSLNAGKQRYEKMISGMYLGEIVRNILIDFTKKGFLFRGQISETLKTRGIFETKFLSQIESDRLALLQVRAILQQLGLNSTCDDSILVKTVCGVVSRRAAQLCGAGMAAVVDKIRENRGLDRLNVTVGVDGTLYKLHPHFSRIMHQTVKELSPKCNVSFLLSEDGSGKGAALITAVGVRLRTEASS
The assay is described as follows: HK1 enzyme activation by HKDC1 hits – biochemical, selectivity assay for HKDC1 activator project, dose response (AID 504762). Type of assay: functional.

Assay [5] deals with Heat shock protein HSP 90-alpha (Homo sapiens, UniProt P07900). The class given is functional, organism-based.
A short description of assay [6]: reduction of Shn3 3'UTR-driven luciferase in osteoblasts – cell-based, Clone20 osteoblasts, firefly luciferase, cherry-picked, dose response (AID 624132).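 Note: firefly luciferase luminescence from reporter carrying the Shn3 3'UTR in osteoblasts.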 The class given is functional.
The target of another assay is Hexokinase (Trypanosoma brucei, UniProt Q38C41). The assay is described as follows: Confirmation assay for inhibitors of Trypanosoma brucei hexokinase 1-Analogue-first series. [Related pubchem assays (depositor defined):AID1430, AID1632, AID2516, AID2560, AID2579, AID2600, AID449725, AID492951]. Type of assay: functional.
Sequence of Hexokinase (Q38C41 whole entry): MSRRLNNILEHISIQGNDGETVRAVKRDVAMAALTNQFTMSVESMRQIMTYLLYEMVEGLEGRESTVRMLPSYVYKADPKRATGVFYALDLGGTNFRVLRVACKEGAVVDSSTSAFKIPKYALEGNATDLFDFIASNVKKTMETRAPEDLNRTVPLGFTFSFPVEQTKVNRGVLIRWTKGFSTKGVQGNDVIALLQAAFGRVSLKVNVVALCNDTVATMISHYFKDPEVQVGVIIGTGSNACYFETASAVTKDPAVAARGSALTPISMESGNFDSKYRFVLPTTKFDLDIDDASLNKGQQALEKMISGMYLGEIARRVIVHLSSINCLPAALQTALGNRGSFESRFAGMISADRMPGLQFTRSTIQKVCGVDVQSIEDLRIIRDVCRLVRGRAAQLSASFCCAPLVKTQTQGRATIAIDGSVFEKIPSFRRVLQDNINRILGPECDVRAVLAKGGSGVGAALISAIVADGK
Assay [7] addresses Glucose-6-phosphate 1-dehydrogenase (Homo sapiens, UniProt P11413). The assay is described as follows: inhibition of Homo sapiens G6PD, dose series – biochemical, fluorescence, selectivity assay for P. falciparum G6PD inhibitor project, dose response (AID 504792). Type of assay: functional.
In assay [8] the target is T4, Mitochondrial peptide methionine sulfoxide reductase (Bos taurus, UniProt P54149).
T4 sequence (P54149 whole entry): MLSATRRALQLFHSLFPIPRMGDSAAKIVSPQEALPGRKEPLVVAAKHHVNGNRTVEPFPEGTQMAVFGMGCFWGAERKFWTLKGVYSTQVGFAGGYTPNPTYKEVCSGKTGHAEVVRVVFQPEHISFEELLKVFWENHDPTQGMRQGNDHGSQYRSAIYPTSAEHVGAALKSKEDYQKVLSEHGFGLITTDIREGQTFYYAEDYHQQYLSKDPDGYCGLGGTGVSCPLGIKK
Briefly: Absorbance-based biochemical high throughput dose response assay for activators of Methionine sulfoxide reductase A (MsrA). The class given is functional.

For assay [9], the target named is Alkaline phosphatase, placental type (Homo sapiens, UniProt P05187). Briefly: human placental alkaline phosphatase inhibition – biochemical, luminescence, confirmation (AID 1512). Type of assay: functional.
Sequence of Alkaline phosphatase, placental type (P05187 whole entry): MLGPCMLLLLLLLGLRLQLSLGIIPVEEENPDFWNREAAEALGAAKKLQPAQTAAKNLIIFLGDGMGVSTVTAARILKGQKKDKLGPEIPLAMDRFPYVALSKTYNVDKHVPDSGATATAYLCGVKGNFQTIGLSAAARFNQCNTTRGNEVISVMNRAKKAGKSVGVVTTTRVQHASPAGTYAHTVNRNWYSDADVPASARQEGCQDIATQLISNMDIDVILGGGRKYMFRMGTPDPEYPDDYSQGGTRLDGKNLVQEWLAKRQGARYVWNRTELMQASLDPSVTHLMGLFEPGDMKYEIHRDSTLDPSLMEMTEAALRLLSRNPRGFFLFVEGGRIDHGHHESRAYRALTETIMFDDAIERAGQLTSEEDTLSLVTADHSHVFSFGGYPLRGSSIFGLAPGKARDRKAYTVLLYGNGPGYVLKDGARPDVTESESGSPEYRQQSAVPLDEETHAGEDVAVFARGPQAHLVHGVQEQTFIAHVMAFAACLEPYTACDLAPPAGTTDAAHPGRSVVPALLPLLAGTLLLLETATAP
Assay [10] addresses T5, Alkaline phosphatase, tissue-nonspecific isozyme (Homo sapiens, UniProt P05186).
T5 sequence (P05186 whole entry): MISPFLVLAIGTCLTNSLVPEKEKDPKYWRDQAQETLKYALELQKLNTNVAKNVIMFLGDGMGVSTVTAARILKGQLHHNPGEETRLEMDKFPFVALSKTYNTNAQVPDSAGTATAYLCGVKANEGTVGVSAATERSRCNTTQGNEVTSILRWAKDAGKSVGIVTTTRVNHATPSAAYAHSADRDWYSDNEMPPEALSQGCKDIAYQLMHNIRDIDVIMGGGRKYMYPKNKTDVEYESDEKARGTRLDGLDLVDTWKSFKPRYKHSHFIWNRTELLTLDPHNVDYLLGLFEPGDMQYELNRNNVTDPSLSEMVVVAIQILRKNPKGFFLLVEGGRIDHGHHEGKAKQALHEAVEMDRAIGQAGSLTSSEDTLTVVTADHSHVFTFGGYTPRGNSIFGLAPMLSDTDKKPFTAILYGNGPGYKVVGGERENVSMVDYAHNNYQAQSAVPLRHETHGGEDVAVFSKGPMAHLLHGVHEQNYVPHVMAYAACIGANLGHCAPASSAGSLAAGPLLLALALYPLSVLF
Briefly: potency against alkaline phosphatase TNAP – biochemical, luminescent, dose response, SAR follow-up (AID 1056).

The target of a further assay is X-box-binding protein 1 (Homo sapiens, UniProt P17861). The class given is functional, Cricetulus griseus.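 Note: confirmatory dose-response counter-screen serving a CHOP assay.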
Sequence of X-box-binding protein 1 (P17861 whole entry): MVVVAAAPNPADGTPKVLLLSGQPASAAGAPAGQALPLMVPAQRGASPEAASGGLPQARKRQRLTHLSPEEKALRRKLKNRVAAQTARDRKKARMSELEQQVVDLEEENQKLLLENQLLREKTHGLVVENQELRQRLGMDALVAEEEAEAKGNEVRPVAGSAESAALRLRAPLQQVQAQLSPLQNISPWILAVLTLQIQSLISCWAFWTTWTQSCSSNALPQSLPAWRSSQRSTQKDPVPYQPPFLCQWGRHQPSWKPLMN
Assay [11] concerns the target T6, Corticotropin-releasing factor receptor 2/Corticotropin-releasing factor-binding protein (Homo sapiens, UniProt P24387+Q13324).
T6 sequence (Q13324 whole entry): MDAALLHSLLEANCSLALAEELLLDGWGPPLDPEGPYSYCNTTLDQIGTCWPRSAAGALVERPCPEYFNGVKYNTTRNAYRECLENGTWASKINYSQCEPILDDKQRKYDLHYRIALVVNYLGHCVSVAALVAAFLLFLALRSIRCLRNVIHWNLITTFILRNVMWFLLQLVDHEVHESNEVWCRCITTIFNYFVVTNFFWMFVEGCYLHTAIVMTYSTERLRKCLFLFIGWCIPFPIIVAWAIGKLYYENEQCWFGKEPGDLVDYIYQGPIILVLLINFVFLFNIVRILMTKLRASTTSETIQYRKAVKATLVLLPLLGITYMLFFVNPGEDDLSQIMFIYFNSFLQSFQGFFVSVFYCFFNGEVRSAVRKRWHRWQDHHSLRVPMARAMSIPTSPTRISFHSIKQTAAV
T6 sequence (P24387 whole entry): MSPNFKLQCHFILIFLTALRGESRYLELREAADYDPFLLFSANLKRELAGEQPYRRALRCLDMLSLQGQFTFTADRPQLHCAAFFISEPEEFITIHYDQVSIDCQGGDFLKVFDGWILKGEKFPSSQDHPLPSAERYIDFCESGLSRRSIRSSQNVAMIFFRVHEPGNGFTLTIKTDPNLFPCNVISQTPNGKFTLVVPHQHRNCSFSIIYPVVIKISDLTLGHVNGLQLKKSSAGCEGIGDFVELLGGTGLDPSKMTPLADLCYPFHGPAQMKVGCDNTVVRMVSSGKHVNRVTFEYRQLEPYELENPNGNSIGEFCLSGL
Briefly: activators of CRF receptor 2 with binding protein – uHTS hits, confirmation (AID 602473). Type of assay: functional. Conditions: read-out: EC50_Mean.

Usually IC50 stands for the concentration that inhibits the measured activity by half. In general, AC50 refers to the concentration giving half of the maximal activity seen. The CC50 is the concentration at which the toxic effect on the cells reaches its halfway point.

Sequence of Large T antigen (P03070 whole entry): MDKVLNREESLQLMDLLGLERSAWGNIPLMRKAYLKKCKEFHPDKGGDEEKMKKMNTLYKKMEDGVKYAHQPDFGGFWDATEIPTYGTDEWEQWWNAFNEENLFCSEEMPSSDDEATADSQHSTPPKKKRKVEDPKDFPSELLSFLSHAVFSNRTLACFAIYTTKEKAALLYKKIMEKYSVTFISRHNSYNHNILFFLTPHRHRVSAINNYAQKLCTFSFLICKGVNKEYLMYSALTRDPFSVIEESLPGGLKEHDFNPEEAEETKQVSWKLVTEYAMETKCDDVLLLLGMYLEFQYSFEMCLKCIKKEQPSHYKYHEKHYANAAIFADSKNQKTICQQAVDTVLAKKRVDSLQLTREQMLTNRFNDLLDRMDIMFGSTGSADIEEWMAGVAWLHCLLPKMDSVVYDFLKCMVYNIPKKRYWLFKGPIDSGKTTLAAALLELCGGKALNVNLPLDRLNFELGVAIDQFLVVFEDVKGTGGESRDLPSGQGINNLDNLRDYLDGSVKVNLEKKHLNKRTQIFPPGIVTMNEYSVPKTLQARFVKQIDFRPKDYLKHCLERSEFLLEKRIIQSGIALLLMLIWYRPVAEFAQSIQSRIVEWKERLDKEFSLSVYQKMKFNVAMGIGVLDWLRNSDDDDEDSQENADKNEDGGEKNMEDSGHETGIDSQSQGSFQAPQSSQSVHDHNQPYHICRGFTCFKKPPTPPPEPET
Sequence of Glucose-6-phosphate 1-dehydrogenase (P11413 whole entry): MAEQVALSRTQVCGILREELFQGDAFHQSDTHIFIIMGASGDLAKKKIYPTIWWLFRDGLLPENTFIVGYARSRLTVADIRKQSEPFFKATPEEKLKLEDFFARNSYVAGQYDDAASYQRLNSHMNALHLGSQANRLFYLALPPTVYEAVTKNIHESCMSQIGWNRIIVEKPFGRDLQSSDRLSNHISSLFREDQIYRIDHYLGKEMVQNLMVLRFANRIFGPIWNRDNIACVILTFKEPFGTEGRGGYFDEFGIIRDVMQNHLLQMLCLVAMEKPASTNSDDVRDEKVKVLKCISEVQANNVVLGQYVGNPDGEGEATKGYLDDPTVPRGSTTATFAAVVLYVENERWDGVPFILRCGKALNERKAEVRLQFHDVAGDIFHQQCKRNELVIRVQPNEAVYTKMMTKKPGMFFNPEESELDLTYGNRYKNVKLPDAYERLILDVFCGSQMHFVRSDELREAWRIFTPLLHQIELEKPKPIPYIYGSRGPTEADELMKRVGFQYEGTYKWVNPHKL

`O=C(O)c1ccc(-c2ccc(O)c(F)c2)cc1`: the IC50 on Large T antigen was 6.76 µM (active). In addition, the AC50 on Trypsin was 11.9 µM (active); at CAAX prenyl protease 2 it was > 100 µM (inactive).

`Nc1c(C(=O)NCc2ccco2)c2nc3ccccc3nc2n1CCc1ccccc1F`: in [1], the CC50 is 24.3 µM (active). The 50% inhibitory concentration (IC50) in assay [2] was 13.7 µM (active); in assay [3] it was 86.3 µM (inactive).

`Cc1ccc(O)c(-c2cc(C(=O)NCc3ccc4c(c3)OCO4)[nH]n2)c1`: in assay [4], the EC50 was 13 µM (active).

Turning to `CC(N/N=C(\S)N1CCN(c2ccccn2)CC1)c1nccc2ccccc12` (centres undefined), the EC50 on Hexokinase HKDC1 is 2.19 µM (active); at Hexokinase-1, > 80 µM (inactive). Also, the IC50 at Nonstructural protein 1 is 2.43 µM (active). Also, the AC50 is 2.58 µM (active) in assay [5] and < 0.26 µM (active) in [6].

Take `N#Cc1ccc2sn(-c3ccccc3)c(=O)c2c1`: the IC50 on Hexokinase was 2.97 µM (active); in assay [7] it was 14.1 µM (active). Moreover, in assay [8], the EC50 was > 104 µM (inactive).

As to `O=C(NC1(C(F)(F)F)Oc2ccccc2O1)c1ccc(Cl)cc1`, the IC50 in assay [9] and in [10] was > 100 µM (inactive) throughout.

Consider `COc1ccc2o/c(=N\O)c(C(=O)Nc3ccccc3OC)cc2c1`, for which the IC50 in [2] is 59 µM (inactive); in assay [3] it was 60.5 µM (inactive).

With `CC1(c2ccc(OC(F)F)cc2)NC(=O)N(/N=C/c2c(O)ccc3ccccc23)C1=O` (centres undefined), the “Absolute IC50 (XBP1)” value at X-box-binding protein 1 was determined as 10 µM. In addition, the EC50 in assay [11] was > 53 µM (inactive).

`COC(=O)c1ccc(Cl)cc1NC(=O)c1ccccc1OC`: the IC50 at Hexokinase was > 25 µM (inactive).

Consider `Cc1ccc(-c2nnc(SCC(=O)c3ccc(O)c(O)c3)n2-c2ccc(Cl)cc2)cc1`, for which the IC50 in assay [9] is 15.3 µM (active); in assay [10], > 100 µM (inactive).
